System: Plasmopara viticola
Test: Activity against peronospora of grapevines caused by Plasmopara viticola (protective spray on potted vines)
Type: in vivo
Details: individual active compound, untreated control 89% infection
Procedure: The active compounds, separately or jointly, were prepared as a stock solution comprising 0.25% by weight of active compound in acetone or DMSO. 1% by weight of the emulsifier Uniperol® EL (wetting agent having emulsifying and dispersant action based on ethoxylated alkylphenols) was added to this solution, and the mixture was diluted with water to the desired concentration.
Leaves of potted vines were sprayed to runoff point with an aqueous suspension having the concentration of active compound stated below. The next day, the undersides of the leaves were inoculated with an aqueous sporangia suspension of Plasmopara viticola. The grapevines were then initially placed in a water-vapor-saturated chamber at 24° C. for 48 hours and then in a greenhouse at 20-30° C. for 5 days. After this period of time, the plants were again placed in a humid chamber for 16 hours to promote sporangiophore eruption. The extent of the development of the disease on the undersides of the leaves was then determined visually.
The visually determined percentages of infected leaf areas were converted into efficacies in % of the untreated control:
The efficacy (E) is calculated as follows using Abbot's formula: E=(1−α/β)·100 • α corresponds to the fungicidal infection of the treated plants in % and • β corresponds to the fungicidal infection of the untreated (control) plants in %
An efficacy of 0 means that the infection level of the treated plants corresponds to that of the untreated control plants; an efficacy of 100 means that the treated plants are not infected.
The expected efficacies of mixtures of active compounds were determined using Colby's formula (Colby, S. R. “Calculating synergistic and antagonistic responses of herbicide combinations”, Weeds, 15, 20-22, 1967) and compared with the observed efficacies.
Colby's formula: E=x+y−x·y/100 • E expected efficacy, expressed in % of the untreated control, when using the mixture of the active compounds A and B at the concentrations a and b • x efficacy, expressed in % of the untreated control, when using the active compound A at the concentration a
y efficacy, expressed in % of the untreated control, when using the active compound B at the concentration b

In the case of CC1CCN(c2c(-c3c(F)cc(F)cc3F)c(Cl)nc3ncnn23)CC1 [compound I, 5-chloro-7-(4-methylpiperidin-1-yl)-6-(2,4,6-trifluorophenyl)-[1,2,4]tri-azolo[1,5-a]pyrimidine], the “Efficacy in % of the untreated control” value (1 ppm in the spray liquor) is reported as 0% and the “Efficacy in % of the untreated control” value (4 ppm in the spray liquor) is reported as 33%.

In the case of CO/C=C(/C(=O)OC)c1ccccc1COc1cccc(C(F)(F)F)n1 [compound II, methyl 3-methoxy-2-[2-(6-trifluoromethylpyridin-2-yloxymethyl)phenyl]acrylate], the “Efficacy in % of the untreated control” value (1 ppm in the spray liquor) is reported as 33% and the “Efficacy in % of the untreated control” value (4 ppm in the spray liquor) is reported as 66%.

From US20070203158A1, “Fungicidal Mixtures” (BASF AKTIENGESELLSCHAFT, priority 2004, published 2007)
